US11897859B1, “Coumarin compounds as antibacterial agents” (KING FAISAL UNIVERSITY, priority 2023, dated 2024)
Converted amounts (≈) assume the structure as drawn. Where two headings read alike, the source gives them in different places.

Columns and labels:
[1] = test system: Staphylococcus aureus ATCC 29213; assay: In vitro antibacterial activity (CLSI M07-A10 dilution), MIC; format: cell-based; details: ATCC29213
[2] = test system: Klebsiella pneumonia MTCC 618; assay: as above; format: cell-based; details: Klebsiella pneumoniae, MTCC618
[3] = test system: Bacillus subtilis MTCC 441; assay: as above; format: cell-based; details: MTCC441
[4] = test system: Mycobacterium tuberculosis H37Rv strain; assay: Anti-tubercular alamar blue microplate MIC assay; format: cell-based; details: 168 h, M. tuberculosis H37Rv, 7 days at 37° C., read-out: anti-mycobacterial activity (MIC)
[5] = test system: Staphylococcus aureus ATCC BAA-1556 (MERSA resistant); assay: In vitro antibacterial activity (CLSI M07-A10 dilution), MIC; format: cell-based; details: ATCCBAA1556
[6] = test system: Pseudomonas aeruginosa MTCC 741; assay: as above; format: cell-based; details: MTCC741
[7] = test system: Enterococcus faecium ATCC 51559 (VRE resistant); assay: as above; format: cell-based
[8] = test system: Enterococcus faecium ATCC 35667; assay: as above; format: cell-based; details: ATCC35667
[9] = target: T1, DNA gyrase from E. coli (Escherichia coli, UniProt P0AES4+P0AES6); assay: Inhibitory activity on E. coli DNA gyrase (Inspiralis supercoiling assay); format: biochemical
T1 construct: purchased Inspiralis
Protocol: Inhibitory potencies were investigated utilizing the Inspiralis assay on streptavidin-coated 96-well microtiter plates. First, the plates were rehydrated with buffer (20 mM Tris-HCl with pH 7.6, 0.01% w/v BSA, 0.05% v/v Tween 20, 137 mM NaCl) and the biotinylated oligonucleotide was then immobilized. After washing off the unbound oligonucleotide, the enzyme test was performed. […] Reaction solutions were incubated at 37° C. for 30 min. After that, the TF buffer (50 mM NaOAc with pH 5.0, 50 mM NaCl and 50 mM MgCl2) was added to terminate the enzymatic reaction. After additional incubation for 30 min at rt, during which biotinoligonucleotide-plasmid triplex was formed, the unbound plasmid was washed off using TF buffer and SybrGOLD in T10 buffer (10 mM Tris HCl with pH 8.0 and 1 mM EDTA) was added. The fluorescence was measured with a microplate reader (BioTek Synergy H4, excitation: 485 nm, emission: 535 nm). […] GraphPad Prism software was used to calculate the IC50 values. The result is given as the average value of three independent measurements.

[10] = test system: Staphylococcus epidermidis; assay: In vitro antibacterial activity (CLSI M07-A10 dilution), MIC; format: cell-based
[11] = test system: Escherichia coli MTCC 443; assay: as above; format: cell-based; details: MTCC443

T1 sequence (P0AES4 whole entry, one chain of several): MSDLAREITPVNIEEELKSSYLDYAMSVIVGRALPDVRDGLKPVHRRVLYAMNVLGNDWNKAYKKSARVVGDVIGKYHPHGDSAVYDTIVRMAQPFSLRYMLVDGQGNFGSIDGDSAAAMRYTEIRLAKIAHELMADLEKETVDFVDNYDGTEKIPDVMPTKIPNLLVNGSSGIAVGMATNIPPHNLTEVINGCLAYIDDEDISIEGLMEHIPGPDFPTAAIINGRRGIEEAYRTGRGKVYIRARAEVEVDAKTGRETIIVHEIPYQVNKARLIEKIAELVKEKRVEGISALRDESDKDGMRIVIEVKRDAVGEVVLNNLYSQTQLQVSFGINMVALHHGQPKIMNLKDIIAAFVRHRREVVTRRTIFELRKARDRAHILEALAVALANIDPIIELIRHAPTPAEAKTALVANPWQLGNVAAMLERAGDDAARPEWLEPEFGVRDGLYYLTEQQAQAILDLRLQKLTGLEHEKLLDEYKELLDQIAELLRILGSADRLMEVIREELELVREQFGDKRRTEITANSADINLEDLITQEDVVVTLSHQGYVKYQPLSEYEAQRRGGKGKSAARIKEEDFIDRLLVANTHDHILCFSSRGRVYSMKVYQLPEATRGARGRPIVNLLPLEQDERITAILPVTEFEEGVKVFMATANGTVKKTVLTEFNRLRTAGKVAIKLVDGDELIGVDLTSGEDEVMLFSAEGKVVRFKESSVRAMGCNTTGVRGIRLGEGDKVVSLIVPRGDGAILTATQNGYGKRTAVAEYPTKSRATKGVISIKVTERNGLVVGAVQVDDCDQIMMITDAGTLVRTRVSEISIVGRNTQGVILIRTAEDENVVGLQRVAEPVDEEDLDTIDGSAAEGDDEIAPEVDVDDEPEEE

SMILES	MIC [1]	MIC ([2]; Klebsiella pneumonia MTCC 618, read-out: MIC)	MIC [3]	MIC [4]	MIC [5]	MIC [6]	MIC [7]	MIC [8]	IC50 [9]	MIC [10]	MIC [11]	MIC [2]
CCC(=O)Nc1ccc2cc(-c3cc(C(=O)O)ccc3CN(C)C3CCCCC3)c(=O)oc2c1 [Compound 12, 4-((cyclohexyl(methyl)amino)methyl)-3-(2-oxo-7-propionamido-2H-chromen-3-yl)benzoic acid]	2 µg/mL (≈ 4.32 µM)	1 µg/mL (≈ 2.16 µM)	0.75 µg/mL (≈ 1.62 µM)	8 µg/mL (≈ 17.3 µM)	4 µg/mL (≈ 8.65 µM)	1 µg/mL (≈ 2.16 µM)	1 µg/mL (≈ 2.16 µM)	0.75 µg/mL (≈ 1.62 µM)	78 nM	1 µg/mL (≈ 2.16 µM)	4 µg/mL (≈ 8.65 µM)	–
CN[C@H](CC(C)C)C(=O)N[C@H]1C(=O)N[C@@H](CC(N)=O)C(=O)N[C@H]2C(=O)N[C@H]3C(=O)N[C@H](C(=O)N[C@H](C(=O)O)c4cc(O)cc(O)c4-c4cc3ccc4O)[C@H](O)c3ccc(c(Cl)c3)Oc3cc2cc(c3O[C@@H]2O[C@H](CO)[C@@H](O)[C@H](O)[C@H]2O[C@H]2C[C@](C)(N)[C@H](O)[C@H](C)O2)Oc2ccc(cc2Cl)[C@H]1O [Vancomycin, reference compound]	–	–	–	–	–	–	–	–	–	–	–	> 128 µg/mL
